Entries after “also recorded” stand apart in the source; their conditions may differ. Read-outs that look alike come from different tables or passages of the source.
Assays:
[1] = system: Histamine-Induced Bronchoconstriction; test: Inhibition of histamine-induced bronchoconstriction in the anesthetized guinea pig in vivo by intravenous administration; details: for ED50: Cavia porcellus, iv, i.v. 15 seconds prior to histamine
Procedure: (§1) Male albino guinea pigs (400-600 g; Dunkin-Hartley Strain) were anesthetized with pentobarbitone sodium (60 mg/kg intraperitoneally).
(§2) Trachea, external jugular vein and carotid artery were cannulated for recording ventilation, intravenous administration of drugs, and blood pressure respectively. The animals were artificially respired throughout the experiment. Electrocardiograms were also recorded. Respiratory flow was charted on a twin-channel recorder fixed to an SE differential pressure transducer.
(§3) Histamine was administered intravenously at 5 minute intervals. The test drug was administered intravenously 15 seconds prior to histamine in order to inhibit bronchoconstriction.

[2] = system: Histamine-Induced Bronchoconstriction; test: Inhibition of intravenous histamine-induced bronchoconstriction in the anesthetized guinea pig by inhalational administration; format: in vivo
Procedure: as §1, §2, §3
Details of the procedure of this example are the same as those in preceding Example 2 with the exception that the test compounds were delivered in aerosol form into the trachea of the test aminals.

[3] = system: mobilization of free fatty acids induced by epinephrine; details: U.S. Pat. No. 3,636,120 (Pike); cited from earlier work
Guinea Pig Ileum = test: Antagonism to PGE1 in the guinea pig ileum in vitro; format: cell-based; details: for antagonism of the effects of PGE1 in the guinea pig ileum: in vitro
Procedure: Preparations were placed in tissue chambers filled with Ringer-Tyrode solution at 37° C., bubbled with a mixture of 95% O2 and 5% CO2, and arranged for isometric recording with force displacement transducers. The segments were stretched to an initial tension of 1 g, and responses to a test concentration of acetylcholine (0.1 mcg/ml) were obtained every 5 minutes until two similar responses were observed (usually after four administrations). Responses to PGE1
(0.1 mcg/ml) were obtained and recorded at 5 minute intervals before and after 100 seconds of incubation with 0.1 and 1.0 mcg/ml of 1-decarboxy-1-hydroxymethyl-PGE1. Any direct contractile effect of the test compound was recorded and evaluated in terms of mean values in grams of tension developed at each concentration. Responses to the agonist observed after incubation with the test compound were expressed as percent of control responses. All drugs were administered in a volume of 0.1 ml.

Conscious Cat = test: Tracheobronchial irritancy (coughing) in conscious cats after inhalation; format: in vivo; details: for tracheobronchial irritancy compared with PGE1: inhalation, equivalent concentrations/dosages
Procedure: A test drug was given at concentrations from 0.01 μg/ml (up to 100 μg/ml) at two hour intervals exposing each cat for up to 10 minutes each time. If coughing occurred no further challenge was given that day. Two to three days later the other test substance was given. The aerosol was delivered from an ultrasonic nebulizer via rubber tubing connected to a face mask fitted to the cat. The animal was mildly restrained. Coughing was noted by an observer and also monitored by a microphone connected to a tape recorder.

platelet aggregation = details: U.S. Pat. No. 3,636,120 (Pike); cited from earlier work
[4] = system: Convulsions Induced by Inhaled Histamine; test: Delay of convulsions induced by inhaled histamine in conscious guinea pigs; format: in vivo, guinea pig
Procedure: Conscious male albino guinea pigs (Dunkin-Hartley strain) weighing 200-300 g were placed (singly) in a 5-liter transparent chamber for 1 minute and subjected to an aerosol of vehicle or test drug in solution, plus histamine (1% w/v).
The time from the beginning of the administration of the aerosol to the start of the first convulsion (when the guinea pig is immediately removed from the aerosol) is the pre-convulsion time. Twenty-four hours later the general procedure was repeated. Guinea pigs treated with the test drug on the first day were treated with vehicle on the second day and vice versa in a cross-over design. Maximum time allowed in the aerosol was 10 minutes. An ultrasonic humidifier was used to produce the aerosol.

[5] = system: Guinea Pig Tracheal Tissue; test: Relaxation of guinea pig tracheal tissue in vitro; format: cell-based; details: for Relaxation (×80) (± S.E.): Table B, standard error in parentheses
Procedure: Male guinea pigs weighing 200-500 g were killed by a blow on the head. A 20 mm length of trachea was dissected from each of the animals, transferred to a petri dish containing Krebs' solution aerated with 95% O2 and 5% CO2 at 37° C., and cut longitudinally opposite the tracheal muscle. The tissue was then cut transversely three quarters of the distance across; a second cut in the opposite direction again three quarters of the distance across the tissue was made, and the procedure was continued for the whole tissue. The ends of the trachea were pulled to form a zig-zag shaped strip. The tracheal strips used in the experiment were approximately 30 mm when extended under 0.25-0.5 g load in a tissue bath. Cotton thread was tied to one end of the tissues, and linen thread to the other. The tissues were attached via the linen thread to a glass hook in a 5 ml isolated tissue bath containing Krebs' solution at 37° C. aerated with a mixture of 95% O2 and 5% CO2. The opposite ends were attached via cotton thread to an isotonic transducer. The load on the transducer lever was small, usually 0.3 g, with a range of 0.25-0.5 g; and the magnification high, 80-fold using an appropriate twin-channel pen recorder. A minimum of thirty minutes was allowed before applying a drug to the tissues. Drugs were then applied (in volumes of 0.5 ml) at thirty minute intervals, being in contact with the tissue for five minutes followed by an overflow washout time of twenty seconds.

[6] = listed as 1-decarboxy-1-methylhydroxy-PGE1
[7] = 0.10 μg/ml of stock solution aerosolized
[8] = 1.00 μg/ml of stock solution aerosolized

## CCCCC[C@H](O)/C=C/[C@H]1[C@H](O)CC(=O)[C@@H]1CCCCCCCO [1-Decarboxy-1-Hydroxymethyl-PGE1, 15(S)-1,11α,15α-trihydroxy-9-oxo-13-trans-prostene]
[1]; A = PGE1, B = 1-decarboxy-1-hydroxymethyl-PGE1, Experiment No. 1
  Ratio of ID50 Values (A/B): 1.14
[1]; A = PGE1, B = 1-decarboxy-1-hydroxymethyl-PGE1, Experiment No. 2
  Ratio of ID50 Values (A/B): 1.25
[1]; A = PGE1, B = 1-decarboxy-1-hydroxymethyl-PGE1, Experiment No. 3
  Ratio of ID50 Values (A/B): 1.17
[1]; A = PGE1, B = 1-decarboxy-1-hydroxymethyl-PGE1, Experiment No. 4
  Ratio of ID50 Values (A/B): 1.14
[1]; A = PGE1, B = 1-decarboxy-1-hydroxymethyl-PGE1, Experiment No. 5
  Ratio of ID50 Values (A/B): 1.05
[1]; A = PGE1, B = 1-decarboxy-1-hydroxymethyl-PGE1, mean
  Ratio of ID50 Values (A/B), Mean: 1.17
[1]; Experiment No. 1, read-out: Dose I.V. inhibiting bronchoconstriction by 50% (ID50)
  ED50: 0.529 µg/kg
[1]; Experiment No. 2, read-out: Dose I.V. inhibiting bronchoconstriction by 50% (ID50)
  ED50: 0.733 µg/kg
[1]; Experiment No. 3, read-out: Dose I.V. inhibiting bronchoconstriction by 50% (ID50)
  ED50: 0.225 µg/kg
[1]; Experiment No. 4, read-out: Dose I.V. inhibiting bronchoconstriction by 50% (ID50)
  ED50: 0.756 µg/kg
[1]; Experiment No. 5, read-out: Dose I.V. inhibiting bronchoconstriction by 50% (ID50)
  ED50: 0.193 µg/kg
[1]; mean of experiments 1-5, read-out: Dose I.V. inhibiting bronchoconstriction by 50% (ID50), Mean
  ED50: 0.495 µg/kg
[2]; 0.001 μg/ml in stock solution aerosolized, inhalation
  Precent Inhibition of Histamine-Induced Bronchoconstriction: 24%
[2]; at 0.001 μg/ml, guinea pig in vivo, relative to PGE1
  times more effective than PGE1 in inhibition of histamine-induced bronchoconstriction: 4 times
[3]
  effect on mobilization of free fatty acids induced by epinephrine: antagonizes mobilization of free fatty acids induced by epinephrine
Guinea Pig Ileum; 0.1 mcg/ml
  Direct Effect, gm tension: 0.0 gm tension
Guinea Pig Ileum; 1.0 mcg/ml
  Direct Effect, gm tension: 0.0 gm tension
Guinea Pig Ileum; Cavia porcellus, 100 s, read-out: %-Blockade of Tissue Response to 0.1 mcg/ml of PGE1, 0.1 mcg/ml, 100 seconds of incubation
  inhibition at 0.1 µg/mL: 38%
Guinea Pig Ileum; Cavia porcellus, 100 s, read-out: %-Blockade of Tissue Response to 0.1 mcg/ml of PGE1, 1.0 mcg/ml, 100 seconds of incubation
  inhibition at 1 µg/mL: 100%
Guinea Pig Ileum; at the tested concentrations
  direct effect on the tissue: no effect on the tissue at the tested concentrations
Guinea Pig Ileum
  antagonism of the effects of PGE1 in the guinea pig ileum: inhibits the effects of PGE1 in guinea pig ileum tissue in vitro
Guinea Pig Ileum; [6]
  antagonism of the effects of PGE1 in the guinea pig ileum: antagonizes the effects of PGE1 in the guinea pig ileum
Conscious Cat; [7]
  Incidence of Coughing in a Female (F) Cat: 0/3
  Incidence of Coughing in a Male (M) Cat: 0/3
Conscious Cat; [8]
  Incidence of Coughing in a Female (F) Cat: 1/3
  Incidence of Coughing in a Male (M) Cat: 0/3
Conscious Cat; 10.00 μg/ml of stock solution aerosolized
  Incidence of Coughing in a Male (M) Cat: 0/3
Conscious Cat; 100.00 μg/ml of stock solution aerosolized
  Incidence of Coughing in a Male (M) Cat: 0/2
Conscious Cat
  tracheobronchial irritancy compared with PGE1: much lower incidence of tracheobronchial irritancy than does PGE1 at equivalent concentrations; also recorded: does not cause tracheal-bronchial irritation at equivalent dosages
Conscious Cat; [6]
  tracheobronchial irritancy compared with PGE1: less irritating than PGE1
Platelet aggregation
  effect on platelet aggregation: inhibits platelet aggregation
[4]; Expt. 1A, 0.10 μg/ml stock solution aerosolized, P <0.02
  Prolongation of Preconvulsion Time: 99 s
[4]; Expt. 1A, 0.50 μg/ml stock solution aerosolized, P <0.001
  Prolongation of Preconvulsion Time: 140 s
[4]; Expt. 1A, 2.50 μg/ml stock solution aerosolized, P <0.01
  Prolongation of Preconvulsion Time: 141 s
[4]; Expt. 1A, 10.00 μg/ml stock solution aerosolized, P <0.02
  Prolongation of Preconvulsion Time: 181 s
[4]; Expt. 2A, 0.01 μg/ml stock solution aerosolized, P <0.01
  Prolongation of Preconvulsion Time: 54 s
[4]; Expt. 2A, 0.10 μg/ml stock solution aerosolized, P <0.05
  Prolongation of Preconvulsion Time: 41 s
[4]; Expt. 2A, 1.00 μg/ml stock solution aerosolized, P <0.02
  Prolongation of Preconvulsion Time: 108 s
[4]; Expt. 2A, 10.00 μg/ml stock solution aerosolized, P <0.02
  Prolongation of Preconvulsion Time: 198 s
[4]; Expt. 2A, 25.00 μg/ml stock solution aerosolized, P <0.001
  Prolongation of Preconvulsion Time: 302 s
[5]; 0.001 μg/ml
  Relaxation (×80) (± S.E.): 24 (18) mm
[5]; 0.01 μg/ml
  Relaxation (×80), 1st Tissue: 30 mm
  Relaxation (×80), 2nd Tissue: 30 mm
  Relaxation (×80), Mean Response: 30 mm
[5]; 0.010 μg/ml
  Relaxation (×80) (± S.E.): 59 (30) mm
[5]; 0.10 μg/ml
  Relaxation (×80), 1st Tissue: 113 mm
  Relaxation (×80), 2nd Tissue: 93 mm
  Relaxation (×80), Mean Response: 104 mm
[5]; 0.100 μg/ml
  Relaxation (×80) (± S.E.): 79 (21) mm
[5]; 1.00 μg/ml
  Relaxation (×80), 1st Tissue: 153 mm
  Relaxation (×80), 2nd Tissue: 173 mm
  Relaxation (×80), Mean Response: 163 mm
[5]; 1.000 μg/ml
  Relaxation (×80) (± S.E.): 104 (14) mm
[5]; 10.00 μg/ml
  Relaxation (×80), 1st Tissue: 146 mm
  Relaxation (×80), 2nd Tissue: 199 mm
  Relaxation (×80), Mean Response: 172 mm
[5]; 10.000 μg/ml
  Relaxation (×80) (± S.E.): 105 (35) mm
[5]; at 0.001 μg/ml, relative to PGE1
  times more potent than PGE1 in relaxing guinea pig tracheal tissue: 24 times
[5]; equivalent concentrations
  comparative effectiveness vs PGE1 in relaxation of tracheal tissue: clearly more effective at equivalent concentrations
[5]; relative to PGE1, no concentration stated for this clause
  times more potent than PGE1 in relaxing guinea pig tracheal tissue in vitro: 24 times
